In patent publication US4691024A, “New mitomycin derivatives, preparation thereof and pharmaceutical compositions containing them” (priority 1984, dated 1987):
≈ marks a conversion by molar mass, not a printed value.

Assays:
[1] = tested on: Bacillus subtilis 10707; assay: Antibacterial activity, minimum growth inhibitory concentration by agar dilution method (BS); assay type: cell-based; details: Bacillus subtilis, 10707, pH 7, read-out: MIC, Bacillus subtilis (BS)
Experimental: (§1) The various compounds of formula (I) of Examples 1-26 were tested for antibacterial activity against 6 microorganisms. […]. In this table, the following symbols are used:
BS: Bacillus subtilis 10707

[2] = Acute toxicity in mice (LD50, Behrens Kerber's method); details: mouse, in vivo, ip; ddy mice, single intraperitoneal administration, 14 days observation
Experimental: (§2) The antitumour-activity and toxicity of various compounds of formula (I) were investigated as indicated below.
Each animal of the test group consisting of 5 ddy mice was administered intraperitoneally once with a test compound. […] The LD50 was determined by Behrens Kerber's method.

[3] = tested on: Klebsiella pneumoniae ATCC 10031; assay: microbe, parasite or virus in culture; assay type: cell-based; details: ATCC10031, pH 7, read-out: MIC, Klebsiella pneumoniae (KP)
Description: In this table, the following symbols are used:
KP: Klebsiella pneumoniae ATCC 10031

[4] = tested on: Streptococcus faecalis ATCC 10541; assay: Antibacterial activity, minimum growth inhibitory concentration by agar dilution method (SF); assay type: cell-based; details: Enterococcus faecalis, ATCC10541, pH 7, read-out: MIC, Streptococcus faecalis (SF)
Experimental: as §1
SF: Streptococcus faecalis ATCC 10541

[5] = tested on: Staphylococcus aureus ATCC 6538P; assay: Antibacterial activity, minimum growth inhibitory concentration by agar dilution method (SA); assay type: cell-based; details: ATCC6538P, pH 7, read-out: MIC, Staphylococcus aureus (SA)
Experimental: as §1
SA: Staphylococcus aureus ATCC 6538P

[6] = tested on: Sarcoma 180 solid tumour; assay: Anti-tumour activity against Sarcoma 180 solid tumour in mice; assay type: in vivo; details: Mus musculus, sc, 168 h; Sarcoma 180 s.c. in ddy mice; into tail vein 24 hours after implantation; volume at 7 days; read-out: ED50 (dose reducing tumour volume to 50% of control)
Experimental: as §2
(1) Effect against Sarcoma 180 solid tumour cells
5×10^6 cells of Sarcoma 180 solid tumour were intraperitoneally implanted into ddy mice. 7 days later, ascites cells were sampled. The cells were washed once with a sterilized physiological solution of sodium chloride and were used to prepare a cell suspension containing 5×10^7 cells per ml. On each occasion, 0.1 ml of the cell suspension was subcutaneously implanted into the right arm pit of a male mouse (ddy strain; body weight 20±2 g). The test compound was dissolved in a physiological solution of sodium chloride with or without addition of Tween 80 and was administered into the tail vein of each mouse of a group consisting of 5 mice at a dose of 0.1-0.2 ml, 24 hours after the implantation of the tumour cells.
The anti-tumour activity was determined in the following manner. 7 days after the implantation, the major axis (a) and the minor axis (b) of the tumour were measured to calculate a value of "a×b^2 /2" which corresponds to the volume of the tumour. The anti-tumour activity was expressed by the ratio of the volume of the tumours (T) of the group of animals administered with the test compound to the corresponding volume of tumours (c) of the untreated animals.
(2) Determination of ED50
(The amount needed for reducing the volume of Sarcoma 180 solid tumours in mice to 50% on the basis of the corresponding volume of Sarcoma solid tumours in control untreated animals). On graph paper, T/C (the ratio of the volume of tumours of treated and control animals) was indicated by an arithmetic scale on the longitudinal axis and the administered amount of the test compound was indicated by a logarithmic scale on the lateral axis.
The relationship between the dose and T/C was shown by a straight line determined by the method of least squares, from which a dose corresponding to T/C of 0.5 was obtained.

[7] = tested on: peripheral leucocytes; assay: Effect on the peripheral leucocytes number in Sarcoma 180 bearing mice; assay type: in vivo; details: Sarcoma 180 bearing ddy mice; intraperitoneal 24 hours after implantation; blood 4 days later
Experimental: as §2
(4) Effect on the peripheral leucocytes number
Sarcoma 180 solid tumour cells (5×10^6) were subcutaneously implanted into the right arm pit of each mouse (body weight 20±2 g) of a group consisting of 5 male mice (ddy strain). 24 hours after implantation, a test compound was intraperitoneally administered to each animal. 4 days later, blood (each 0.02 ml) was collected from the suborbital plexus vein of each tumour-carrying animal. The collected sample of the blood was dispersed in 9.98 ml of Cell-Kit Seven solution. One drop of saponin solution was added to the sample to dissolve erythrocytes, and then a microcell counter was used to measure the number of leucocytes. On a graph paper, the number of leucocytes was indicated on the y-axis by an arithmetic scale and the dose of the test compound was indicated on the x-axis by a logarithmic scale. The relationship between the number of peripheral leucocytes and the dosage of the test compound was plotted and the dosage corresponding to 4000 peripheral leucocytes/mm^3 (about 1/2 the number of leucocytes of normal mice) was obtained. This value is denoted in Table 5 by WBC4000.

[8] = tested on: Shigella sonnei ATCC 9290; assay: Antibacterial activity, minimum growth inhibitory concentration by agar dilution method (SS); assay type: cell-based; details: ATCC9290, pH 7, read-out: MIC, Shigella sonnei (SS)
Experimental: as §1
SS: Shigella sonnei ATCC 9290

[9] = Solubility in 0.03M phosphate buffered solution; assay type: physicochemical; details: 0.03m phosphate buffer, aqueous buffer, pH 7.0, 23° C.
Experimental: The solubilities of Compound 5, Compound 14 and Compound 20 in 0.03M phosphate buffered solution (pH 7.0, 23° C.) were determined.

[10] = tested on: Proteus vulgaris ATCC 6897; assay: Antibacterial activity, minimum growth inhibitory concentration by agar dilution method (PV); assay type: cell-based; details: ATCC6897, pH 7, read-out: MIC, Proteus vulgaris (PV)
Experimental: as §1
PV: Proteus vulgaris ATCC 6897

[11] = Stability of the product as observed on isolation; assay type: physicochemical; details: in words; yield not constant
Experimental: To this solution is added dropwise 1 ml of methanol containing 23 mg of L-cysteine methyl ester hydrochloride and 50 μl of triethylamine. About 2 minutes later, the solvent is removed from the mixture by distillation under reduced pressure. Then, a similar treatment to that described in Example 1 is effected to obtain a small amount of Compound 16 as a grayish green powder. The yield of the resultant compound is not constant because of its unstability.
The yield is not constant because of unstability of the product.

CO[C@@]12[C@H](COC(N)=O)C3=C(C(=O)C(C)=C(NCCSSC[C@H](N)C(=O)O)C3=O)N1C[C@@H]1N[C@@H]12 [Compound 14, 7-N-[2-[(L-Cystein-S-yl)thio]ethyl]mitomycin C]
MIC [1]: 0.16 µg/mL (≈ 0.312 µM)
LD50 at 336 h [2]: 30 mg/kg
MIC [3]: 0.63 µg/mL (≈ 1.23 µM)
MIC [4]: 0.31 µg/mL (≈ 0.604 µM)
MIC [5]: 0.31 µg/mL (≈ 0.604 µM)
ED50 [6]: 15.4 mg/kg
WBC4000 (dosage corresponding to 4000 peripheral leucocytes/mm^3) [7]: 26.9 mg/kg
MIC [8]: > 20 µg/mL
solubility [9]: > 100 mg/mL
MIC [10]: 5 µg/mL (≈ 9.74 µM)

COC(=O)[C@@H](N)CSSCCNC1=C(C)C(=O)C2=C(C1=O)[C@@H](COC(N)=O)[C@@]1(OC)[C@H]3N[C@H]3CN21 [Compound 16, 7-N-[2-[(L-1-Methoxycarbonylcysteamin-S-yl)thio]ethyl]mitomycin C]
MIC [1]: < 0.02 µg/mL
stability of the resultant compound [11]: unstability
MIC [3]: 0.2 µg/mL (≈ 0.379 µM)
MIC [4]: 0.39 µg/mL (≈ 0.739 µM)
MIC [5]: 0.2 µg/mL (≈ 0.379 µM)
MIC [8]: 50 µg/mL (≈ 94.8 µM)
MIC [10]: 1.6 µg/mL (≈ 3.03 µM)

CCOC(=O)[C@@H](N)CSSCCNC1=C(C)C(=O)C2=C(C1=O)[C@@H](COC(N)=O)[C@@]1(OC)[C@H]3N[C@H]3CN21 [Compound 17]
MIC [1]: < 0.02 µg/mL
stability of the resultant compound [11]: unstability
MIC [3]: 0.2 µg/mL (≈ 0.369 µM)
MIC [4]: 0.2 µg/mL (≈ 0.369 µM)
MIC [5]: 0.2 µg/mL (≈ 0.369 µM)
MIC [8]: 25 µg/mL (≈ 46.2 µM)
MIC [10]: 1.6 µg/mL (≈ 2.95 µM)
